From article PMC6856805, “Environmental Risk Assessment for the Active Pharmaceutical Ingredient Mycophenolic Acid in European Surface Waters” (Environmental Toxicology and Chemistry, 2019)

Columns and labels:
humans = test: Derivation of acceptable daily exposure (ADE); design: species or system human
Procedure: Similarly, potential risk for humans from secondary poisoning is assessed by using the acceptable daily exposure (ADE) value for MPA (T. Pfister, unpublished data), which considers toxicological data as well as human experience and covers all routes of uptake, including sensitive subpopulations, over 365 d/annum, with the combined worst‐case uptake through drinking water and fish. No removal of MPA in drinking water production is assumed, but a default intake of 2 L water and 115 g fish/person and day is assumed (European Commission 2011; Murray‐Smith et al. 2012). This combined uptake is then compared with the ADE.
The ADE was derived based on the available nonclinical and clinical data, with the critical effects identified as 1) immunosuppression and secondary effects thereof and 2) teratogenicity; in addition, the relevance of positive results in genotoxicity tests was assessed (T. Pfister, unpublished data). Based on the NOAEL of 2 mg/kg body weight/d in the 12‐mo oral toxicity study in the rat, an ADE was derived by multiplying this NOAEL by a default body weight of 60 kg for humans and dividing by adjustment factors, namely, 6.2 for extrapolation from rats to humans, 10 for variability between individuals, 1 for study duration of 1 yr for rodents, 5 for severity of systemic toxicity (hematopoiesis, immunotoxicity), and 3 for use of an established NOAEL instead of an NOEL; this derivation results in a first ADE of 0.1 mg MPM/60‐kg person/d. […] The weak clastogenic potential observed at higher doses was considered to be irrelevant at these exposure levels. Because the first ADE was lower than, and therefore also protective of, the second, 0.1 mg MPM/60‐kg person/d was selected as the ADE. Stoichiometrically, this ADE for MPM corresponds to 0.0739 mg MPA/d, which was rounded to 0.075 mg or 75 µg MPA/d. The MTDI for an otter was derived by normalizing the ADE for a 60‐kg human to the otter with a default body mass of 10 kg, resulting in an MTDI of 0.0125 mg or 12.5 µg MPA/10‐kg otter/d.

mice = system: mice; design: method as in T. Pfister, unpublished data; conditions: oral, 104 wk at 25, 75, or 180 mg/kg body weight/d, ref T. Pfister, unpublished data; cited from earlier work
[1] = system: mice with large cell lymphoma; design: method as in T. Pfister, unpublished data; conditions: ref T. Pfister, unpublished data; cited from earlier work
rats [2] = system: rats; design: method as in T. Pfister, unpublished data; conditions: oral, ref T. Pfister, unpublished data; cited from earlier work
[3] = OECD test guideline 301F ready biodegradability test
[4] = River sediment/water fate test (US FDA Guideline 3.11) with 14C-MPM; conditions: all systems and dosings
Procedure: A river sediment/water fate test with two different ^14C-MPMs (one carboxyl-^14C-labelled, the other morpholine-^14C-labelled) was commissioned in 1994 by Syntex according to US FDA Guideline 3.11 in compliance with GLP (Yan 1995). Both carboxyl-^14C-labelled and morpholine-^14C-labelled MPM were tested separately for biodegradability in river water and sediment at dosing concentrations of 1 and 5 mg MPM/L, in parallel test set-ups in the dark at 21±1 °C over 64 days. Air was drawn in flow-through systems first through a 2 N KOH vessel to remove natural CO2, then through the test vessel and subsequently through two sequential 2 N KOH traps for ^14CO2 capture. Samples from the latter traps were taken for duplicate ^14CO2 analysis by LSC on days 1, 2, 3, 7, 14, 21, 28, 35, 49 and 64. Test medium samples for HPLC analysis were taken on days 0.01 (15 min after dosing), 1, 3, 7, 14, 21, 35, 49 and 64. Sediment samples were taken at the end for combustion and ^14CO2 analysis.

[5] = system: lymphocyte and erythrocyte systems; design: method as in T. Pfister, unpublished data; conditions: ref T. Pfister, unpublished data; cited from earlier work
rats [6] = system: rats; design: method as in T. Pfister, unpublished data; conditions: at least 104 wk at 3, 7, or 15 mg/kg body weight/d, ref T. Pfister, unpublished data; cited from earlier work
[7] = design: method as in Lee et al. 1990; Shipkova et al. 2005; conditions: in the liver and intestine; ref Lee et al. 1990; Shipkova et al. 2005; cited from earlier work
rat = conditions: in vivo, po; cited from earlier work
rabbits = system: rabbits; design: method as in T. Pfister, unpublished data; conditions: oral, ref T. Pfister, unpublished data; cited from earlier work
[8] = design: method as in T. Pfister, unpublished data; conditions: ref T. Pfister, unpublished data, cited from earlier work
rats [9] = conditions: cited from earlier work
[10] = OECD test guideline 314B activated sludge biodegradation simulation test
From the text: Mineralization comprises evolved CO2 (detected in the traps) as well as CO2 dissolved in the sludge. The latter was highest at day 2 and decreased afterward, whereas the amount of evolved CO2 increased continuously until the end of the study. […] At no time point was a noteworthy amount of radioactivity (>2% iRR throughout the test period) detected in the liquor after extraction. Radioactivity in the solids extract was highest at day 0 (5.5% iRR) and decreased afterward to 0.3% iRR after 28 d.
Based on this k biodeg and physicochemical properties for MPA, SimpleTreat 4.0 (Struijs 2015) calculated a removal of 12% in STPs, mostly through biodegradation (0.27% in the primary settler and 11.5% in the aeration tank), with a small fraction of 0.13% adsorbed to sludge, in agreement with the OECD test guideline106 (Organisation for Economic Co‐operation and Development 2000) adsorption results mentioned in the previous paragraph (V. Halász‐Laky, unpublished data). […] A high degradation rate is supported by data from Franquet‐Griell et al. (2017b), who measured STP influents and effluents and compared solid phase extraction and macroporous ceramic passive samplers in Spain. […]

Cyprinus carpio = system: Cyprinus carpio; design: method as in FASS 2018; conditions: OECD 203; ref FASS 2018; cited from earlier work
D. magna = system: D. magna; design: method as in FASS 2018; conditions: OECD 202; ref FASS 2018; cited from earlier work
[11] = design: method as in FASS 2018; conditions: OECD 209; ref FASS 2018; cited from earlier work

COc1c(C)c2c(c(O)c1C/C=C(\C)CCC(=O)OCCN1CCOCC1)C(=O)OC2 [MPM, mycophenolate mofetil]
first ADE (selected as the ADE) (humans; from rat 12‐mo NOAEL): 0.1 mg MPM/60‐kg person/d | second ADE (humans; from rat teratogenicity NOEL): 0.19 mg MPM/60‐kg person/d | carcinogenicity (mice): not carcinogenic | survival times [1]: prolonged survival times | no‐observed‐effect level (NOEL) for teratogenic changes (rats [2]): 2 mg/kg body weight/d | inhibition of activated sludge activity ([3]; nominal 100 mg MPM/L): no inhibition | ready biodegradability result ([3]; nominal 100 mg/L): primary degradation by HPLC without oxygen uptake | time to full primary degradation [4]: ≤ 7 days | in vitro antitumour effects [5]: in vitro antitumour effects | carcinogenicity (rats [6]): not carcinogenic | hydrolysis of prodrug [7]: rapidly and fully hydrolyzed to MPA | no‐observed‐adverse‐effect level (NOAEL) (rat): 2 mg/kg body weight/d | no‐observed‐effect level (NOEL) for teratogenic changes (rabbits): 30 mg/kg body weight/d | clastogenicity ([8]; extended exposure, only at highly cytotoxic dose levels): possesses a clastogenic potential | point mutations or primary DNA damage ([8]; presence or absence of metabolic activation): did not induce point mutations or primary DNA damage | dose causing malformations in the pups in the absence of maternal toxicity (rats [9]; highest dose, oral, rats, ref T. Pfister, unpublished data): 4.5 mg/kg body weight/d | NOAEL, female fertility and reproduction study (rats [9]; rat, in vivo, po): 1.5 mg/kg body weight/d | effect on fertility (rats [9]; rats, oral, ref T. Pfister, unpublished data): no effect on fertility

COc1c(C)c2c(c(O)c1C/C=C(\C)CCC(=O)O)C(=O)OC2 [^14C‐MPA, Mycophenolic acid, [carboxyl‐14C]]
degradation in activated sludge [10]: > 80%

COc1c(C)c2c(c(O)c1C/C=C(\C)CCC(=O)[O-])C(=O)OC2.[Na+] [sodium‐MPA]
acute fish 50% lethal concentration (LC50) (Cyprinus carpio): > 100 µg/mL | acute daphnid EC50 (D. magna): > 100 µg/mL | 3‐h EC50, respiration inhibition [11]: 2213 µg/mL | EC10, respiration inhibition [11]: 69 µg/mL
